Format in all cases: functional
One assay relates to Pieris brassicae. Description: Antifeedant activity against fifth-instar larval stage of Pieris brassicae fed on compound-treated cabbage leaf disks at 5 mM by two choice assay.
The next assay concerns Spodoptera exempta. Nature of the assay: Antifeedant activity against Spodoptera exempta larvae fed on artificial diet containing compound at 100 ppm by two choice assay.
The subject of another assay is Spodoptera frugiperda. Description: Antifeedant activity against Spodoptera frugiperda (fall armyworm) larvae fed on artificial diet containing compound at 100 ppm by two choice assay.

Consider `CC1(C)OC(=O)C=C1CCC1CCCCC1`, for which the AFI in the assay with Pieris brassicae is recorded as 26%. Turning to `O=C1CC(CCC2CCCCC2)CO1` (configuration not stated), in the assay on Pieris brassicae, the AFI is given as -9.2%. As for `CC(=O)OC[C@@]12[C@@H](OC(C)=O)C[C@@H](C)[C@](C)(CCC3=CC(=O)OC3)[C@H]1CCC[C@]21CO1` [AJUGARIN I], the AFI in the assay with Spodoptera exempta turned out to be 73%; in the assay with Spodoptera frugiperda it was 47%.

On to `O=C1CC(O)(CCC2CCCCC2)CO1` (configuration not stated), for which, in the assay with Pieris brassicae, the AFI is reported as -4%.

Regarding `O=C1C=C(CCC2CCCCC2)CO1`, in the assay with Pieris brassicae, the AFI stood at 35%.

For the compound `CC(=O)OC[C@@]12[C@@H](OC(C)=O)C[C@@H](C)[C@](C)([C@@H]3C[C@H]4C=CO[C@H]4O3)[C@H]1CCC[C@]21CO1` [CLERODIN], the AFI in the assay with Spodoptera exempta worked out at 76%; in the assay on Spodoptera frugiperda it was 78%. Regarding `CC1(C)OC(=O)CC1(O)CCc1ccccc1` (configuration not stated), the AFI in the assay on Pieris brassicae turned out to be 36%. Turning to `CC1(C)OCCC1(O)CCc1ccccc1` (configuration not stated), the AFI in the assay with Pieris brassicae stood at 28%.

For the compound `CCCCCCC1(O)CC(=O)OC1(C)C` (configuration not stated), in the assay with Pieris brassicae, the AFI came out at 11%. On the same count and under the same terms, the figure for `CCCCCCC1=CC(=O)OC1(C)C` is 9%. On the same count and under the same terms, the figure for `CC1(C)OC(O)CC1(O)CCc1ccccc1` (configuration not stated) is 5%. With `CC(=O)OC[C@@]12[C@@H](OC(C)=O)C[C@@H](C)[C@](C)(C[C@H](O)c3ccoc3)[C@H]1CCC[C@]21CO1` [6,19-DIACETYLTEUMASSILIN], the values for the AFI with Spodoptera exempta and with Spodoptera frugiperda were 38% and 94%, respectively.

Consider `C[C@@H]1CC(O[Si](C)(C)C(C)(C)C)CC[C@@]1(C)CCC1=CC(=O)OC1` (some centres not stated), for which the results for the AFI in the assay with Spodoptera exempta and in the assay with Spodoptera frugiperda were 34% and 12%, respectively. With `CC1(C)OC(=O)C=C1CCc1ccccc1`, in the assay on Pieris brassicae, the AFI is reported as 33%. Same read-out and setting: the value for `COC1CC(O)(CCc2ccccc2)C(C)(C)O1` (configuration not stated) was 23%; that for `CC1(C)OC(=O)CC1(O)CCC1CCCCC1` (configuration not stated) was 15%.

Take `CC(=O)OC[C@@]12[C@@H](OC(C)=O)C[C@@H](C)C(C)(C)[C@H]1CCC[C@]21CO1`: the AFI turned out to be 20% in the assay with Spodoptera exempta and 15% in the assay with Spodoptera frugiperda.
